In PMC12441857, “Cannabinoid CB1 Receptor Activation Mitigates N‑Methyl‑D‑aspartate Receptor-Mediated Neurotoxicity” (ACS Pharmacology & Translational Science, 2025):

Biological target: T1, cannabinoid CB1 receptor (CB1R) (Homo sapiens, UniProt P21554)
T1 construct: gene CNR1; SNAP-tagged CB1R in HEK-293T cells
Test: HTRF (Tag-lite) competition binding against fluorescent CELT-335
Type: cell-based

T1 sequence (P21554 whole entry): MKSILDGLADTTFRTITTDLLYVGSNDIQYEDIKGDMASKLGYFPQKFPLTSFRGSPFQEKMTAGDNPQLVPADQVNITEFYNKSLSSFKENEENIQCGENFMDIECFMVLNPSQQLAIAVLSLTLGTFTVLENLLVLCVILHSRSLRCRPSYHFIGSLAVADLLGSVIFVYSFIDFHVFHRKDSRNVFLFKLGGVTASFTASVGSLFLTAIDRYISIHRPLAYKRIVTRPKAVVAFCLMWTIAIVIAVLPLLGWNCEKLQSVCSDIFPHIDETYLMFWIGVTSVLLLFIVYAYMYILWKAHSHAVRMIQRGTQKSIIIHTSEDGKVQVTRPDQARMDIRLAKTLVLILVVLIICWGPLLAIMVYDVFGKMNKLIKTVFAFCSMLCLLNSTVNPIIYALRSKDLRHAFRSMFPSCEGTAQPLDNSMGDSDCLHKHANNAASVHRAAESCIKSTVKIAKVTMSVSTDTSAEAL

## CCCCC/C=C\C/C=C\C/C=C\C/C=C\CCCC(=O)NCCCl [ACEA]
  Ki: 4.8 nM
